Measurements published in PubChem BioAssay (NCI).
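Where inhibition never reached the appropriate level, the endpoint shown equals the highest concentration tested. Otherwise, values were interpolated linearly from a five-concentration, 48-hour dose response in 96-well plates. GI50 = concentration required for 50% inhibition of growth. The concentration for full growth arrest is given as TGI.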

Tests used:
Experiment in all cases: inhibition of tumour cell growth, NCI panel, 48 h
786-0 renal = tested on: 786-0 renal
SNB-19 CNS = tested on: SNB-19 CNS
HL-60(TB) leukemia = tested on: HL-60(TB) leukemia
HS 578T breast = tested on: HS 578T breast
SN12C renal = tested on: SN12C renal
COLO 205 colon = tested on: COLO 205 colon
KM12 colon = tested on: KM12 colon
SR leukemia = tested on: SR leukemia
SW-620 colon = tested on: SW-620 colon
DU-145 prostate = tested on: DU-145 prostate
RPMI-8226 leukemia = tested on: RPMI-8226 leukemia
K-562 leukemia = tested on: K-562 leukemia
OVCAR-4 ovarian = tested on: OVCAR-4 ovarian
HT29 colon = tested on: HT29 colon
SF-539 CNS = tested on: SF-539 CNS
OVCAR-5 ovarian = tested on: OVCAR-5 ovarian
HCT-116 colon = tested on: HCT-116 colon
MOLT-4 leukemia = tested on: MOLT-4 leukemia
CAKI-1 renal = tested on: CAKI-1 renal
SK-MEL-28 melanoma = tested on: SK-MEL-28 melanoma
MDA-MB-231 breast = tested on: MDA-MB-231 breast
SK-MEL-5 melanoma = tested on: SK-MEL-5 melanoma
NCI-H226 lung = tested on: NCI-H226 lung
LOX IMVI melanoma = tested on: LOX IMVI melanoma
ACHN renal = tested on: ACHN renal
OVCAR-8 ovarian = tested on: OVCAR-8 ovarian
HCT-15 colon = tested on: HCT-15 colon
UACC-62 melanoma = tested on: UACC-62 melanoma
BT-549 breast = tested on: BT-549 breast
UACC-257 melanoma = tested on: UACC-257 melanoma
UO-31 renal = tested on: UO-31 renal
HOP-92 NSCLC = tested on: HOP-92 NSCLC
PC-3 prostate = tested on: PC-3 prostate
IGROV1 ovarian = tested on: IGROV1 ovarian
SF-268 CNS = tested on: SF-268 CNS
HCC-2998 colon = tested on: HCC-2998 colon
HOP-62 NSCLC = tested on: HOP-62 NSCLC
SF-295 CNS = tested on: SF-295 CNS
MCF7 breast = tested on: MCF7 breast
SK-MEL-2 melanoma = tested on: SK-MEL-2 melanoma
T-47D breast = tested on: T-47D breast
TK-10 renal = tested on: TK-10 renal
U251 CNS = tested on: U251 CNS
NCI-H522 lung = tested on: NCI-H522 lung
RXF 393 renal = tested on: RXF 393 renal
EKVX NSCLC = tested on: EKVX NSCLC
MDA-MB-435 = tested on: MDA-MB-435
M14 melanoma = tested on: M14 melanoma
NCI-H460 lung = tested on: NCI-H460 lung
OVCAR-3 ovarian = tested on: OVCAR-3 ovarian
NCI/ADR-RES ovarian = tested on: NCI/ADR-RES ovarian
A549 NSCLC = tested on: A549 NSCLC
SNB-75 CNS = tested on: SNB-75 CNS
SK-OV-3 ovarian = tested on: SK-OV-3 ovarian
A498 renal = tested on: A498 renal
MALME-3M melanoma = tested on: MALME-3M melanoma

Q: Which results are given for `N/C(=N\c1nc2c(Br)cccc2s1)C(Br)Br`?
A: GI50 (786-0 renal): 13.1 µM; TGI (786-0 renal): 35.2 µM; GI50 (SNB-19 CNS): 10.4 µM; TGI (SNB-19 CNS): 27.8 µM; GI50 (HL-60(TB) leukemia): 7.38 µM; TGI (HL-60(TB) leukemia): 57.5 µM; GI50 (HS 578T breast): 7.24 µM; TGI (HS 578T breast): > 100 µM; GI50 (SN12C renal): 11.7 µM; TGI (SN12C renal): 29.8 µM; GI50 (COLO 205 colon): 3.49 µM; TGI (COLO 205 colon): 13.9 µM; GI50 (KM12 colon): 4.29 µM; TGI (KM12 colon): 22.4 µM; GI50 (SR leukemia): 4.68 µM; TGI (SR leukemia): 31 µM; GI50 (SW-620 colon): 2.26 µM; TGI (SW-620 colon): 11.2 µM; GI50 (DU-145 prostate): 3.84 µM; TGI (DU-145 prostate): 16 µM; GI50 (RPMI-8226 leukemia): 2.97 µM; TGI (RPMI-8226 leukemia): 16.4 µM; GI50 (K-562 leukemia): 2.66 µM; TGI (K-562 leukemia): 52.7 µM; GI50 (OVCAR-4 ovarian): 6.21 µM; TGI (OVCAR-4 ovarian): 30.6 µM; GI50 (HT29 colon): 2.91 µM; TGI (HT29 colon): 12.8 µM; GI50 (SF-539 CNS): 3.7 µM; TGI (SF-539 CNS): 15 µM; GI50 (OVCAR-5 ovarian): 12 µM; TGI (OVCAR-5 ovarian): 25.8 µM; GI50 (HCT-116 colon): 2.27 µM; TGI (HCT-116 colon): 16.8 µM; GI50 (MOLT-4 leukemia): 3.9 µM; TGI (MOLT-4 leukemia): 27.3 µM; GI50 (CAKI-1 renal): 2.1 µM; TGI (CAKI-1 renal): 8.98 µM; GI50 (SK-MEL-28 melanoma): 11.1 µM; TGI (SK-MEL-28 melanoma): 23.3 µM; GI50 (MDA-MB-231 breast): 5.51 µM; TGI (MDA-MB-231 breast): 28 µM; GI50 (SK-MEL-5 melanoma): 17.5 µM; TGI (SK-MEL-5 melanoma): 32 µM; GI50 (NCI-H226 lung): 11.3 µM; TGI (NCI-H226 lung): 38.6 µM; GI50 (LOX IMVI melanoma): 0.307 µM; TGI (LOX IMVI melanoma): 1.29 µM; GI50 (ACHN renal): 2.98 µM; TGI (ACHN renal): 11.8 µM; GI50 (OVCAR-8 ovarian): 8.18 µM; TGI (OVCAR-8 ovarian): 24.1 µM; GI50 (HCT-15 colon): 2.57 µM; TGI (HCT-15 colon): 11.5 µM; GI50 (UACC-62 melanoma): 6.63 µM; TGI (UACC-62 melanoma): 24.3 µM; GI50 (BT-549 breast): 11.2 µM; TGI (BT-549 breast): 29.9 µM; GI50 (UACC-257 melanoma): 13.5 µM; TGI (UACC-257 melanoma): 28 µM; GI50 (UO-31 renal): 5.69 µM; TGI (UO-31 renal): 20.2 µM; GI50 (HOP-92 NSCLC): 6.07 µM; TGI (HOP-92 NSCLC): 29.4 µM; GI50 (PC-3 prostate): 8.68 µM; TGI (PC-3 prostate): 26.1 µM; GI50 (IGROV1 ovarian): 10.4 µM; TGI (IGROV1 ovarian): 31.6 µM; GI50 (SF-268 CNS): 4.67 µM; TGI (SF-268 CNS): 26.9 µM; GI50 (HCC-2998 colon): 3.62 µM; TGI (HCC-2998 colon): 14.3 µM; GI50 (HOP-62 NSCLC): 10.5 µM; TGI (HOP-62 NSCLC): 27.8 µM; GI50 (SF-295 CNS): 10.6 µM; TGI (SF-295 CNS): 25.9 µM; GI50 (MCF7 breast): 2.25 µM; TGI (MCF7 breast): 11.3 µM; GI50 (SK-MEL-2 melanoma): 15.4 µM; TGI (SK-MEL-2 melanoma): 34.7 µM; GI50 (T-47D breast): 10.3 µM; TGI (T-47D breast): 36.1 µM; GI50 (TK-10 renal): 15.9 µM; TGI (TK-10 renal): 32.2 µM; GI50 (U251 CNS): 2.83 µM; TGI (U251 CNS): 12.1 µM; GI50 (NCI-H522 lung): 6.16 µM; TGI (NCI-H522 lung): 21.7 µM; GI50 (RXF 393 renal): 2.74 µM; TGI (RXF 393 renal): 9.95 µM; GI50 (EKVX NSCLC): 11.4 µM; TGI (EKVX NSCLC): 28 µM; GI50 (MDA-MB-435): 3.22 µM; TGI (MDA-MB-435): 13.7 µM; GI50 (M14 melanoma): 10.4 µM; TGI (M14 melanoma): 28.1 µM; GI50 (NCI-H460 lung): 2.55 µM; TGI (NCI-H460 lung): 11.5 µM; GI50 (OVCAR-3 ovarian): 4.19 µM; TGI (OVCAR-3 ovarian): 16.6 µM; GI50 (NCI/ADR-RES ovarian): 2.58 µM; TGI (NCI/ADR-RES ovarian): 9.81 µM; GI50 (A549 NSCLC): 7.76 µM; TGI (A549 NSCLC): 21.9 µM; GI50 (SNB-75 CNS): 10.2 µM; TGI (SNB-75 CNS): 22.1 µM; GI50 (SK-OV-3 ovarian): 10.8 µM; TGI (SK-OV-3 ovarian): 35.4 µM; GI50 (A498 renal): 21.5 µM; TGI (A498 renal): 50.6 µM; GI50 (MALME-3M melanoma): 8.53 µM; TGI (MALME-3M melanoma): 24.4 µM
